Measured values reported in patent US12064418B2, “Conjoint therapies for immunomodulation” (Aurigene Oncology Limited, priority 2017, dated 2024).

Legend:
CT-26 tumor = experiment: Tumor growth inhibition in the CT-26 syngeneic mouse tumor model; format: in vivo, mouse (female Balb/c); settings: CT-26 tumor bearing Balb/c mice, vs Vehicle (H2O)
Text: The purpose of this study is to determine the effect of Cmd 1 and Cmd 32 on growth inhibition (efficacy) in CT-26 tumor bearing mice when administered once daily by oral gavage as single agents or in combination. Cmd 1 and Cmd 32 are small molecule immune modulating agents for treatment of cancer.
Female Balb/c Mice from Charles River Laboratories −20-25 grams; 9-10 weeks old; Strain code: 028.
CT-26 cells were expanded in T225 tissue culture treated flasks in RPMI-1640 medium supplemented with 10% FBS ([…]) and cultured at 37° C. (5% CO2) in a humidified cell culture incubator. Cells were passaged every 3-4 days by detachment with 1× Trypsin/EDTA. Cells were re-plated on 5 flasks in complete RPMI1640 medium.
On the day of implantation, the cells were collected from flasks washed with phosphate buffer solution and detached with Trypsin/EDTA and washed once in phosphate buffer solution with no additives. Cells were resuspended in serum free DMEM at a final concentration of 1×10^6 cells/mL and kept on ice until administered to mice. The cells were kept on ice for no more than 1 hour before administration to the mice. […]
Animals were monitored until tumors were palpable and were then measured until tumor volume reached 100-200 mm^3. […] Tumor cells were counted on a MACSQuant Analyzer with propidium iodide (PI) for live/dead discrimination. […]

MC38 tumor = experiment: Tumor growth inhibition in the MC38 syngenic model; format: in vivo, mouse (female C57BL/6); settings: MC38 SC model, oral once a day
Method: Female C57BL/6 mice bred in-house were used in this efficacy study in the MC38 model. Animals were 6-8 weeks-old and weighed between 13 and 21 g. Animals were marked individually with tail marks and kept in cages that were identified by a cage card showing the study code, date of experimentation, sex and number of animals. During the experiment, the animals were weighed daily.
Tumor cells were cultured according to the procedure explained in the literature (U.S. Pat. No. 9,333,256; A. Filatenkov et al., J. Immunol., 2009. 183(11): 7196-7203). Tumor cells were ensured Mycoplasma free by performing Mycoplasma detection with MYCOALERT®Mycoplasma Detection Kit (Lonza) in accordance with manufacturer instructions. MYCOALERT® Assay is a selective biochemical test that exploits the activity of mycoplasmal enzymes. Viable Mycoplasma would be lysed and enzymes react with MYCOALERT® substrate, catalyzing the conversion of ADP to ATP. […]
MC38 cells were cultured according to the information in published literature (A. Filatenkov et al., J. Immunol., 2009. 183(11): 7196-7203; S. F. Ngiow et al., Cancer Res., 2011. 71(10): 3540-3551). […] Tumor volumes were measured 3 times a week, body weight and clinical signs were monitored every day. […]

[1] = tested on: intratumoral T cell populations; experiment: Cell-surface marker assays of intratumoral T cell populations in the CT-26 model; format: in vivo, mouse (female Balb/c); settings: Cmd 32 50 mg/kg, CT-26 tumors
Method: Animals were monitored until tumors were palpable and were then measured until tumor volume reached 100-200 mm^3. They were then randomized into groups using LabCat software and dosing started the following day. Blood was collected in EDTA tubes and kept on ice. Tumor were collected in 15 mL tubes with RPMI-1640 w/10% FBS on ice. Tumors proceeded to the Miltenyi Biotec mouse tumor dissociation kit. Tumor cells were counted on a MACSQuant Analyzer with propidium iodide (PI) for live/dead discrimination. Percent tumor growth inhibition on Day 20 is tabulated below (Table 11). Tumor volume of individual animals on day 20 and the tumor growth over the course of the study are represented in FIG. 1A and FIG. 1B respectively. Cell-surface marker assays were used to identify intratumoral T cell populations and calculate CD8+ (CTL; cytotoxic T-cell): Treg (regulatory T cell) ratio.

[2] = Mortality, body weight and clinical signs in the MC38 study; format: in vivo; settings: Cmd 32 10 mg/kg group, one animal, no gross pathology, not reliably attributed to treatment
Method: Mortality/morbidity of animals, body weight loss and clinical symptoms were monitored. During study period all moribund animals were sacrificed and animals losing >20% of their body weight were also sacrificed. Body weights were recorded every day and clinical signs of toxicity were recorded once a day. Survival was recorded every day. A 15-20% loss of the body weight and/or animal death was considered as the criteria for toxicity. Behavioural, nesting and gross observations for clinical signs were made at least once every day during the course of the study.
At the end of the study (30 min after the last dose), animals were examined externally for possible abnormalities, weighed and sacrificed by CO2 asphyxiation.

| SMILES | % TGI (Day 20), percent tumor growth inhibition (CT-26 tumor; Cmd 1 100 mg/kg QD PO) [%] | Percent tumor growth inhibition (TGI) (MC38 tumor; Cmd 1 10 mg/kg, Cmd 32 0 mg/kg) [%] | Tumor granzyme-B+/PD-1+/Tim-3+ T cells (percent of CD8) ([1]; FIG. 2B) | Tumor granzyme-B+/PD-1+/Tim-3- T cells (percent of CD8) ([1]; FIG. 2C) | Mortality [2] | % TGI (Day 20), percent tumor growth inhibition (CT-26 tumor; Cmd 32 50 mg/kg QD PO) [%] | Percent tumor growth inhibition (TGI) (MC38 tumor; Cmd 32 10 mg/kg, Cmd 1 0 mg/kg) [%] |
| --- | --- | --- | --- | --- | --- | --- | --- |
| CC(O)[C@H](NC(=O)N[C@@H](CC(N)=O)c1nc([C@@H](N)CO)no1)C(=O)O (stereo in doubt) [Cmd 1] | 23 | 25 | – | – | – | – | – |
| CC(O)[C@H](NC(=O)N[C@@H](CCC(=O)O)c1nc([C@@H](N)CO)no1)C(=O)O (stereo in doubt) [Cmd 32] | – | – | increase | concomitant decrease | found dead | 24 | 10 |
